{"source": "paper PMC12274840", "about": "(The Journal of Biological Chemistry, 2025)", "key": {"CTX-M-14 Y105G [1]": {"molecular_target": "T1, CTX-M-14 Y105G (Escherichia coli, UniProt Q9L5C7, Y108G)", "T1 construct": "29 to 291 of CTX-M-14 (Q9L5C7); His tag with TEV cleavage site (N); made in house; host or cells: E. coli BL21 (DE3) pLysS", "assay_type": "biochemical"}, "CTX-M-14 Y105G [2]": {"molecular_target": "T1, CTX-M-14 Y105G", "test": "biochemical"}, "BlaC WT [3]": {"molecular_target": "T2, BlaC WT (Mycobacterium tuberculosis, UniProt P9WKD3)", "T2 construct": "correspond to residue numbers 41-307 of BlaC (Uniprot entry P9WKD3-1); His tag with TEV cleavage site (N); made in house; host or cells: E. coli BL21 (DE3) pLysS", "T2 sequence (P9WKD3 41-307)": "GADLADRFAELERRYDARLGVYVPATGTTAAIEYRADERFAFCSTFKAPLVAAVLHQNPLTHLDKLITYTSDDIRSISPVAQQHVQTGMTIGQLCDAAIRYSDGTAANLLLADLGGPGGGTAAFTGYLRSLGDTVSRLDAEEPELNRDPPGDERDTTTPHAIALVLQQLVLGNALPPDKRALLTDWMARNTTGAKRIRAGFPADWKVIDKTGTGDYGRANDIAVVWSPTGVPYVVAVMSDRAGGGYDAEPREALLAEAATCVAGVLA", "assay_type": "biochemical"}, "BlaC WT [4]": {"molecular_target": "T2, BlaC WT", "settings": "pH 6.4, cited from earlier work"}, "TEM-1 WT [5]": {"molecular_target": "T3, TEM-1 WT (Escherichia coli, UniProt P62593)", "settings": "phosphate buffer pH 6.4, 25 °C"}, "CTX-M-14 WT": {"molecular_target": "T4, CTX-M-14 WT (Escherichia coli, UniProt Q9L5C7)", "T4 construct": "29 to 291 of CTX-M-14 (Q9L5C7); His tag with TEV cleavage site (N); made in house; host or cells: E. coli BL21 (DE3) pLysS", "test": "biochemical"}, "TEM-1 Y105G [6]": {"molecular_target": "T5, TEM-1 Y105G (Escherichia coli, UniProt P62593, Y103G)", "test": "Steady-state kinetics of substrate hydrolysis, TEM-1 Y105G", "assay_type": "biochemical", "settings": "phosphate buffer pH 6.4, 25 °C"}, "TEM-1 WT [7]": {"molecular_target": "T3, TEM-1 WT", "assay_type": "biochemical", "set-up": "24 to 286 of TEM-1 (P62593); His tag with TEV cleavage site (N); made in house; host or cells: E. coli BL21 (DE3) pLysS"}, "TEM-1 Y105G [8]": {"molecular_target": "T5, TEM-1 Y105G", "test": "In vitro inhibition of nitrocefin hydrolysis and simulation of inhibition curves, TEM-1 Y105G", "assay_type": "biochemical"}, "[9]": {"settings": "nitrocefin parameter (Eq 7) in simulation of avibactam inhibition curves, CTX-M-14 Y105G"}, "[10]": {"settings": "nitrocefin parameter (Eq 7) in simulation of avibactam inhibition curves"}, "[11]": {"settings": "nitrocefin parameter (Eq 7) in simulation of clavulanic acid inhibition curves"}}, "note": "Values joined by “and” are separate entries in the source; they are usually repeats but may differ in a detail not shown here. Identical values can stand only once.", "data": [{"smiles": "O=C(Cc1cccs1)N[C@@H]1C(=O)N2C(C(=O)O)=C(/C=C/c3ccc([N+](=O)[O-])cc3[N+](=O)[O-])CS[C@H]12", "note": "[nitrocefin]", "values": [{"measurement": "kcat", "setting": "CTX-M-14 Y105G [1]; phosphate buffer pH 6.4, 25 °C", "result": "963 ± 117", "unit": "s⁻¹"}, {"measurement": "Km", "setting": "CTX-M-14 Y105G [1]; read-out: KM^app, phosphate buffer pH 6.4, 25 °C", "result": "700 ± 172", "unit": "µM"}, {"measurement": "Kd", "setting": "CTX-M-14 Y105G [2]", "result": 760, "unit": "µM"}, {"measurement": "ka", "setting": "CTX-M-14 Y105G [2]; [9]", "result": "5e+07", "unit": "M⁻¹ s⁻¹"}, {"measurement": "kc", "setting": "CTX-M-14 Y105G [2]; [9]", "result": 460, "unit": "s⁻¹"}, {"measurement": "ka", "setting": "BlaC WT [3]", "result": "1.05e+06", "unit": "M⁻¹ s⁻¹"}, {"measurement": "kc", "setting": "BlaC WT [3]", "result": "82.5 s⁻¹ and 56 s⁻¹"}, {"measurement": "kcat", "setting": "BlaC WT [4]", "result": "86 ± 2", "unit": "s⁻¹"}, {"measurement": "Km", "setting": "BlaC WT [4]; read-out: KM^app", "result": "131 ± 2", "unit": "µM"}, {"measurement": "kcat", "setting": "TEM-1 WT [5]", "result": "933 ± 33", "unit": "s⁻¹"}, {"measurement": "Kd", "setting": "CTX-M-14 WT", "result": 50, "unit": "µM"}, {"measurement": "kc", "setting": "CTX-M-14 WT", "result": 545, "unit": "s⁻¹"}, {"measurement": "kcat", "setting": "TEM-1 Y105G [6]", "result": "453 ± 80", "unit": "s⁻¹"}, {"measurement": "ka", "setting": "TEM-1 WT [7]", "result": "4.5e+07", "unit": "M⁻¹ s⁻¹"}, {"measurement": "kc", "setting": "TEM-1 WT [7]", "result": "830 s⁻¹ and 1040 s⁻¹"}, {"measurement": "ka", "setting": "TEM-1 Y105G [8]; [10]", "result": "1e+07", "unit": "M⁻¹ s⁻¹"}, {"measurement": "kc", "setting": "TEM-1 Y105G [8]; [10]", "result": 95, "unit": "s⁻¹"}, {"measurement": "ka", "setting": "TEM-1 Y105G [8]; [11]", "result": "1e+07", "unit": "M⁻¹ s⁻¹"}, {"measurement": "kc", "setting": "TEM-1 Y105G [8]; [11]", "result": 154, "unit": "s⁻¹"}]}]}
